How the values were obtained:
[1] = target: T1, B. subtilis FtsZ-eGFP fusion protein (Bacillus subtilis, UniProt P17865); assay: Fluorescence microscopy of FtsZ-eGFP localization; assay type: cell-based; settings: 3 μM F332, 4 hours
T1 construct: expressed in transfected cells; host or cells: B. subtilis 168 transformed with pFZ-FtsZ-eGFP
Experimental: The localization of the filamentation in B. subtilis that induced by F332 was performed by fluorescence microscopy using the cell division protein FtsZ identified by a green fluorescent protein. The expression plasmid of the FtsZ-eGFP fusion protein was constructed as follows (the structure of the plasmid was shown in FIG. 10a).
to amplify the eGFP gene fragment, with about 700 base pairs. Two fragments were ligated by overlap extension PCR method and then digested with endonucleases EcoRI and BamHI. They were ligated into the corresponding cleavage site of pFZ2.0 and transformed into E. coli BL21 (DE3) and screened on chloramphenicol plates to obtain the plasmid pFZ-FtsZ-eGFP. The plasmid extracted was transformed into B. subtilis 168 and grown in LB medium containing chloramphenicol. The expression of FtsZ-eGFP gene was observed by adding different concentrations of lactose or IPTG
The B. subtilis shown in FIGS. 10b and 10c was cultured in the absence of F332.
The B. subtilis shown in FIGS. 10d and 10e was cultured in the presence of F332. […] Thus, the expression of the protein was not only at the position where cell division was performed.

[2] = tested on: MRSA strain 231; assay: FICI of F332 with antibiotics; assay type: cell-based, S. aureus
[3] = tested on: MRSA strain 2901; assay: FICI of F332 with antibiotics; assay type: cell-based, S. aureus
[4] = tested on: MRSA strain 3411; assay: FICI of F332 with antibiotics; assay type: cell-based, S. aureus
[5] = tested on: MRSA strain 2895; assay: FICI of F332 with antibiotics; assay type: cell-based, S. aureus
[6] = tested on: MRSA strain 3267; assay: FICI of F332 with antibiotics; assay type: cell-based, S. aureus
[7] = tested on: MRSA strain 757; assay: FICI of F332 with antibiotics; assay type: cell-based, S. aureus
Experimental: The bacterial strains used in this study were clinically isolated MRSA strains USA300#757 and #2960 which were obtained from our laboratory. Determination of the Fractional Inhibitory Concentration Index (FICI) was adopted by the Müller-Hinton broth (MHB) dilution method as previously described. Twelve serial two-fold dilutions of PC190723, F332 and F361 were prepared in the 96-well microplate with concentration ranging from 512 to 0.25 μg/mL. […] Lastly, the compounds and the β-lactams were mixed at a 1:1 ratio and subjected to two-fold dilution as described previously. Each microplate well contained 100 μL of MHB supplemented with compounds alone, β-lactams alone or the mixture of compounds and β-lactams. Overnight cultures of S. aureus in the Müller-Hinton broth was diluted to OD595 of 0.08-0.1 in saline and added in each of the microplate well. The plates were incubated at 37° C. for 20 h. All tests were performed in duplicate and the inhibition of bacterial growth was determined by visualization. The FICI of compounds and β-lactams were calculated as followed: FICI=(MIC of combination of compound and β-lactam/MIC of compound alone)+(MIC of combination of compound and β-lactam/MIC of β-lactam alone).

[8] = tested on: MRSA strain #1749 (ATCC strain); assay: FICI of F332 with antibiotics; assay type: cell-based, S. aureus
[9] = tested on: MRSA strain 1402; assay: FICI of F332 with antibiotics; assay type: cell-based, S. aureus
[10] = tested on: MRSA strain 2919; assay: FICI of F332 with antibiotics; assay type: cell-based, S. aureus
[11] = tested on: MRSA strain #1717 (ATCC strain); assay: FICI of F332 with antibiotics; assay type: cell-based, S. aureus
[12] = tested on: MRSA strain 2224; assay: FICI of F332 with antibiotics; assay type: cell-based, S. aureus
[13] = tested on: MRSA strain 3580; assay: FICI of F332 with antibiotics; assay type: cell-based, S. aureus
[14] = tested on: MRSA strain 200; assay: FICI of F332 with antibiotics; assay type: cell-based, S. aureus
[15] = tested on: MRSA strain 85; assay: FICI of F332 with antibiotics; assay type: cell-based, S. aureus
[16] = tested on: MRSA strain 1449; assay: FICI of F332 with antibiotics; assay type: cell-based, S. aureus

## CCCCCCCCCNc1ccc(F)c(C(N)=O)c1F [Compound F332, 2,6-difluoro-3-(nonylamino)benzamide]
[1]
  localization of FtsZ-eGFP in B. subtilis 168 cells: Green fluorescence appeared in multiple parts of B. subtilis cells
[2]
  FICI of F332 combined with Amoxicillin: 0.52
  FICI of F332 combined with Cefuroxime: 0.50
  FICI of F332 combined with Cloxacillin: 0.28
  FICI of F332 combined with Meropenem: 0.63
  FICI of F332 combined with Meticillin: 0.50
[3]
  FICI of F332 combined with Amoxicillin: 0.06
  FICI of F332 combined with Cefuroxime: 0.13
  FICI of F332 combined with Cloxacillin: 0.25
  FICI of F332 combined with Meropenem: 4.01
  FICI of F332 combined with Meticillin: 0.01
[4]
  FICI of F332 combined with Amoxicillin: 2.02
  FICI of F332 combined with Cefuroxime: 1.00
  FICI of F332 combined with Cloxacillin: 0.53
  FICI of F332 combined with Meropenem: 3.00
  FICI of F332 combined with Meticillin: 1.02
[5]
  FICI of F332 combined with Amoxicillin: 1.06
  FICI of F332 combined with Cefuroxime: 0.31
  FICI of F332 combined with Cloxacillin: 0.38
  FICI of F332 combined with Meropenem: 2.13
  FICI of F332 combined with Meticillin: 0.31
[6]
  FICI of F332 combined with Amoxicillin: 0.25
  FICI of F332 combined with Cefuroxime: 0.01
  FICI of F332 combined with Cloxacillin: 0.25
  FICI of F332 combined with Meropenem: 4.01
  FICI of F332 combined with Meticillin: 0.07
[7]
  FICI of F332 combined with Amoxicillin: 0.27
  FICI of F332 combined with Cefuroxime: 0.08
  FICI of F332 combined with Cloxacillin: 0.13
  FICI of F332 combined with Meropenem: 1.06
  FICI of F332 combined with Meticillin: 0.09
[8]
  FICI of F332 combined with Amoxicillin: 1.03
  FICI of F332 combined with Cefuroxime: 1.13
  FICI of F332 combined with Cloxacillin: 1.25
  FICI of F332 combined with Meropenem: 10.0
  FICI of F332 combined with Meticillin: 1.06
[9]
  FICI of F332 combined with Amoxicillin: 1.02
  FICI of F332 combined with Cefuroxime: 0.63
  FICI of F332 combined with Cloxacillin: 0.75
  FICI of F332 combined with Meropenem: 5.00
  FICI of F332 combined with Meticillin: 0.56
[10]
  FICI of F332 combined with Amoxicillin: 0.51
  FICI of F332 combined with Cefuroxime: 0.25
  FICI of F332 combined with Cloxacillin: 0.31
  FICI of F332 combined with Meropenem: 4.25
  FICI of F332 combined with Meticillin: 0.38
[11]
  FICI of F332 combined with Amoxicillin: 1.06
  FICI of F332 combined with Cefuroxime: 1.13
  FICI of F332 combined with Cloxacillin: 2.50
  FICI of F332 combined with Meropenem: 3.00
  FICI of F332 combined with Meticillin: 1.13
[12]
  FICI of F332 combined with Amoxicillin: 0.19
  FICI of F332 combined with Cefuroxime: 0.25
  FICI of F332 combined with Cloxacillin: 0.25
  FICI of F332 combined with Meropenem: 4.01
  FICI of F332 combined with Meticillin: 0.13
[13]
  FICI of F332 combined with Amoxicillin: 0.28
  FICI of F332 combined with Cefuroxime: 0.06
  FICI of F332 combined with Cloxacillin: 0.53
  FICI of F332 combined with Meropenem: 1.25
  FICI of F332 combined with Meticillin: 0.19
[14]
  FICI of F332 combined with Amoxicillin: 0.02
  FICI of F332 combined with Cefuroxime: 1.00
  FICI of F332 combined with Cloxacillin: 1.00
  FICI of F332 combined with Meropenem: 8.01
  FICI of F332 combined with Meticillin: 0.25
[15]
  FICI of F332 combined with Amoxicillin: 0.04
  FICI of F332 combined with Cefuroxime: 0.25
  FICI of F332 combined with Cloxacillin: 1.00
  FICI of F332 combined with Meropenem: 4.01
  FICI of F332 combined with Meticillin: 0.50
[16]
  FICI of F332 combined with Amoxicillin: 0.38
  FICI of F332 combined with Cefuroxime: 1.50
  FICI of F332 combined with Cloxacillin: 0.63
  FICI of F332 combined with Meropenem: 33.0
  FICI of F332 combined with Meticillin: 0.75

From US20170348258A1, “3-Amino Benzamide Derivative Serving As B-Lactam Auxiliary Antibiotic, Preparation Method and Use Thereof” (THE HONG KONG POLYTECHNIC UNIVERSITY, priority 2014, published 2017)
